Active and inactive are the calls of the source. No cut-off for these calls is given here.
Columns and labels:
U-87 MG [1] = assay: Anti-tumor activity against human U87 cells assessed as reduction in cell proliferation by measuring reduction in green fluorescence intensity at 50 to 100 uM incubated for 48 hrs by Calcein AM dye based fluorescence microscopy; type: functional; conditions: U-87MG ATCC, dose 50-100 µM
U-87 MG [2] = assay: Antitumor activity against human U87 cells assessed as reduction in cell viability incubated for 48 hrs by CCK-8 assay; type: functional, cell-based, U-87MG ATCC
U-87 MG [3] = assay: Antitumor activity against human U87 cells assessed as residual cell viability at 100 uM incubated for 48 hrs by CCK-8 assay relative to control; type: functional, U-87MG ATCC
U-87 MG [4] = assay: Cytotoxicity against human U87 cells assessed as reduction in cell count at 12.5 to 200 uM incubated for 48 hrs by crystal violet staining based microscopic analysis; type: functional; conditions: U-87MG ATCC, dose 12.5-200 µM

SMILES	Activity (U-87 MG [1])	IC50 (U-87 MG [2]) [µM]	Activity (U-87 MG [2]; U-87MG ATCC)	Activity (U-87 MG [3]) [%]	Activity (U-87 MG [4])
Oc1cc(O)cc(/C=C/c2ccccc2)c1 [PINOSYLVIN]	Active	89	Dose-Dependent Effect	90	Active
Cn1nnc2c(C(N)=O)ncn2c1=O [TEMOZOLOMIDE]				47	

— ChEMBL document CHEMBL5614369, “Design, synthesis and biological evaluation of Nrf2 modulators for the treatment of glioblastoma multiforme” (Bioorg Med Chem, 2024)
